In ChEMBL document CHEMBL1158807, “Azadirachtin derivatives from seed kernels of Azadirachta excelsa” (J Nat Prod, 2005):

Experiments:
Type in all cases: organism-based
Conditions in all cases: in vivo
Plutella xylostella [1] = assay: Toxicity in Plutella xylostella larvae after 72 hrs
Plutella xylostella [2] = assay: Toxicity in Plutella xylostella larvae after 24 hrs
Plutella xylostella [3] = assay: Toxicity in Plutella xylostella larvae after 48 hrs
Plutella xylostella [4] = assay: Toxicity in Plutella xylostella larvae after 96 hrs

C/C=C(\C)C(=O)O[C@@H]1C[C@H](O)[C@]23CO[C@H](C(=O)OC)[C@H]2[C@](C)([C@]24O[C@@]2(C)[C@H]2C[C@@H]4O[C@@H]4OC=C[C@@]42O)[C@H](O)[C@@H]2OC[C@@]1(C(=O)OC)[C@H]23 [AZADIRACHTIN B]
LD50 (Plutella xylostella [1]): 1.56 µg/g
LD50 (Plutella xylostella [2]): 4.85 µg/g
LD50 (Plutella xylostella [3]): 2.26 µg/g
LD50 (Plutella xylostella [4]): 1.06 µg/g

C/C=C(\C)C(=O)O[C@H]1C[C@@H](OC(C)=O)[C@@]2(C(=O)OC)CO[C@H]3[C@@H](O)[C@@](C)([C@]45O[C@@]4(C)[C@H]4C[C@@H]5O[C@@H]5OC=C[C@@]54O)[C@@H]4[C@@H](O)OC[C@@]14[C@@H]32
LD50 (Plutella xylostella [1]): 1.38 µg/g
LD50 (Plutella xylostella [2]): 5.75 µg/g
LD50 (Plutella xylostella [3]): 4.2 µg/g
LD50 (Plutella xylostella [4]): 0.75 µg/g

COC(=O)[C@H]1OC[C@@]23[C@@H](OC(=O)CC(C)C)C[C@@H](OC(C)=O)[C@@]4(C(=O)OC)CO[C@@H]([C@@H](O)[C@@](C)([C@]56O[C@@]5(C)[C@H]5C[C@@H]6O[C@@H]6OC=C[C@@]65O)[C@H]12)[C@@H]43 [AZADIRACHTIN O]
LD50 (Plutella xylostella [1]): 1.19 µg/g
LD50 (Plutella xylostella [2]): 3.92 µg/g
LD50 (Plutella xylostella [3]): 1.92 µg/g
LD50 (Plutella xylostella [4]): 0.79 µg/g

COC(=O)[C@H]1OC[C@]23[C@@H]1[C@](C)([C@]14O[C@@]1(C)[C@H]1C[C@@H]4O[C@@H]4OC=C[C@@]41O)[C@H](O)[C@@H]1OC[C@](C(=O)OC)([C@H](O)C[C@@H]2O)[C@H]13 [AZADIRACHTOL]
LD50 (Plutella xylostella [1]): 2.35 µg/g
LD50 (Plutella xylostella [2]): 4.88 µg/g
LD50 (Plutella xylostella [3]): 3.28 µg/g
LD50 (Plutella xylostella [4]): 1.78 µg/g

C/C=C(\C)C(=O)O[C@H]1C[C@@H](OC(C)=O)[C@@]2(C(=O)OC)CO[C@H]3[C@@H](O)[C@@](C)([C@]45O[C@@]4(C)[C@H]4C[C@@H]5O[C@@H]5OC=C[C@@]54O)[C@@H]4[C@@H](OC(C)=O)OC[C@@]14[C@@H]32 [AZADIRACHTIN L]
LD50 (Plutella xylostella [1]): 5.39 µg/g
LD50 (Plutella xylostella [2]): 10.27 µg/g
LD50 (Plutella xylostella [3]): 7.89 µg/g
LD50 (Plutella xylostella [4]): 1.92 µg/g

C/C=C(\C)C(=O)O[C@H]1C[C@@H](OC(C)=O)[C@@]2(C(=O)OC)CO[C@H]3[C@@H](O)[C@@](C)([C@]45O[C@@]4(C)[C@H]4C[C@@H]5O[C@@H]5OC=C[C@@]54O)[C@@H]4[C@@H](C(=O)OC)OC[C@@]14[C@@H]32 [AZADIRACHTIN M]
LD50 (Plutella xylostella [1]): 4.23 µg/g
LD50 (Plutella xylostella [2]): 8.46 µg/g
LD50 (Plutella xylostella [3]): 4.84 µg/g
LD50 (Plutella xylostella [4]): 1.3 µg/g

C/C=C(\C)C(=O)O[C@H]1C[C@@H](OC(C)=O)[C@@]2(C(=O)OC)CO[C@H]3[C@@H](O)[C@@](C)([C@]45O[C@@]4(C)[C@@H]4C[C@H]5O[C@@H]5OC=C[C@@]54O)[C@H]4[C@]1(CO[C@]4(O)C(=O)OC)[C@@H]32 [AZADIRACHTIN A]
LD50 (Plutella xylostella [1]): 1.28 µg/g
LD50 (Plutella xylostella [2]): 7.04 µg/g
LD50 (Plutella xylostella [3]): 4.12 µg/g
LD50 (Plutella xylostella [4]): 0.87 µg/g

COC(=O)[C@H]1OC[C@@]23[C@@H](OC(C)=O)C[C@@H](OC(C)=O)[C@@]4(C(=O)OC)CO[C@@H]([C@@H](O)[C@@](C)([C@]56O[C@@]5(C)[C@H]5C[C@@H]6O[C@@H]6OC=C[C@@]65O)[C@H]12)[C@@H]43 [AZADIRACHTIN Q]
LD50 (Plutella xylostella [1]): 1.4 µg/g
LD50 (Plutella xylostella [2]): 5.95 µg/g
LD50 (Plutella xylostella [3]): 1.89 µg/g
LD50 (Plutella xylostella [4]): 1.1 µg/g

COC(=O)[C@@]12CO[C@H]3[C@@H](O)[C@@](C)([C@]45O[C@@]4(C)[C@H]4C[C@@H]5O[C@@H]5OC=C[C@@]54O)[C@@H]4[C@@H](O)OC[C@]4([C@@H](OC(=O)CC(C)C)C[C@H]1OC(C)=O)[C@@H]32 [AZADIRACHTIN P]
LD50 (Plutella xylostella [1]): 1.19 µg/g
LD50 (Plutella xylostella [2]): 2.19 µg/g
LD50 (Plutella xylostella [3]): 1.73 µg/g
LD50 (Plutella xylostella [4]): 0.79 µg/g
